# In patent US4351829A, “Use of polypeptides as analgesic drugs” (Farmitalia Carlo Erba Spa, priority 1980, dated 1982):
# Read-outs that look alike come from different tables or passages of the source. Square brackets hold non-standard residues; d marks the D form. Peptide text beside a SMILES is read from it. sY = N[C@@H](Cc1ccc(OS(=O)(=O)O)cc1)C(=O)O; pGlu = O=C1CC[C@@H](C(=O)O)N1
# Legend:
# [1] = cancer patients; intravenous bolus 1 nanogram/kg
# Description: The average dosages for Cerulitide were from 0.5 nanograms/kg body weight (i.v.) to 300 nonograms/kg body weight (intramusculary), depending upon the treated pains, as set forth in the following examples.
smiles,measurement,setting,value
CSCC[C@H](NC(=O)[C@H](Cc1c[nH]c2ccccc12)NC(=O)CNC(=O)[C@@H](NC(=O)[C@H](Cc1ccc(OS(=O)(=O)O)cc1)NC(=O)[C@H](CC(=O)O)NC(=O)[C@H](CCC(N)=O)NC(=O)[C@@H]1CCC(=O)N1)[C@@H](C)O)C(=O)N[C@@H](CC(=O)O)C(=O)N[C@@H](Cc1ccccc1)C(N)=O [Ceruletide] ([pGlu]QD[sY]TGWMDF-NH2),Side-effects,"intramuscular 0.05 micrograms/kg, first injection",None
same,Side-effects,intramuscular 0.1 micrograms/kg,None and Burning sensation at the injection site and pain sensation at the injection site
same,Side-effects,second intramuscular injection 0.05 micrograms/kg,None
same,Side-effects,[1],None
